For assay [1], the target named is T1, LXRβ ligand-binding domain (Homo sapiens, UniProt P55055, DUP175-175).
T1 construct: amino acids 156-461; NP009052; made in house; host or cells: E. coli
T1 sequence (P55055 with tags, fused parts or gaps DUP175-175 limits assumed): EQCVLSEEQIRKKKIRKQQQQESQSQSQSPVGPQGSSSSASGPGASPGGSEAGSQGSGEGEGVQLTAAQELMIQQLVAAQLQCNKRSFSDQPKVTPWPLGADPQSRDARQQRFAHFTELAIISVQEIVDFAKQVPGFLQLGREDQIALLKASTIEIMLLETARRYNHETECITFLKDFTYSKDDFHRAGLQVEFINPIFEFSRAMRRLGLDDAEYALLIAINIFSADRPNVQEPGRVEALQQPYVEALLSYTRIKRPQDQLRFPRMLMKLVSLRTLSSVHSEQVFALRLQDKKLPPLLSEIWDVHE
Nature of the assay: TR-FRETβ activity assay (NCoA3 coactivator peptide recruitment). Type of assay: biochemical. Conditions: TR-FRET, 1 μM 24(S)-25-epoxycholesterol prestimulation; read-out: FRETβ (EC50 range). As for the experimental part:
(§1) The tested compounds were usually dissolved, tested and stored as 20 mM stock solutions in DMSO. Since sulfonyl acetic acid derivatives tend to decarboxylate under these conditions, these stock solutions were prepared, tested and stored as 20 mM DMSO stock solutions containing 100 mM trifluoroacetic Acid (5 equivalents). Sulfonyl acetic acid derivatives are shelf stable as solid at rt for long time as reported by Griesbrecht et al. (Synlett 2010:374) or Faucher et al. (J. Med. Chem. 2004; 47:18).
Recombinant GST-LXRPβ ligand-binding domain (LBD; amino acids 156-461; NP009052; SEQ ID NO:4) was expressed in E. coli and purified via gluthatione-sepharose affinity chromatography. N-terminally biotinylated NCoA3 coactivator peptide (SEQ ID NO:7) was chemically synthesized (Eurogentec). Assays were done in 384 well format (final assay volume of 25 μL/well) in a Tris/HCl buffer (pH 6.8) containing KCl, bovine serum albumin, Triton-X-100 and 1 μM 24(S)-25-epoxycholesterol as LXR-prestimulating agonist. Assay buffer was provided and test articles (potential LXR inverse agonists) were titrated to yield final assay concentrations of 50 μM, 16.7 μM, 5.6 μM, 1.9 μM, 0.6 μM, 0.2 μM, 0.07 μM, 0.02 μM, 0.007 μM, 0.002 μM with one vehicle control. Finally, a detection mix was added containing anti GST-Tb cryptate (CisBio; 610SAXLB) and Streptavidin-XL665 (CisBio; 610SAXLB) as fluorescent donor and acceptor, respectively, as well as the coactivator peptide and LXRβ-LBD protein (SEQ ID NO:4). The reaction was mixed thoroughly, equilibrated for 1 h at 4° C. and vicinity of LXRβ and coactivator peptide was detected by measurement of fluorescence in a VictorX4 multiplate reader (PerkinElmer Life Science) using 340 nm as excitation and 615 and 665 nm as emission wavelengths. Assays were performed in triplicates.
Final Assay Concentrations of Components:
240 mM KCl, 1 μg/μL BSA, 0.002% Triton-X-100, […] anti GST-Tb cryptate, 2.5 ng/μL Streptavidin-XL665, coactivator peptide (400 nM), LXRβ protein (530 μg/mL, i.e. 76 nM).

Another assay has as its target T2, full length (FL) LXRα (Homo sapiens, UniProt Q13133).
T2 construct: the full length (FL) proteins of LXRα (amino acids 1-447); NP005684; expressed in transfected cells; host or cells: HEK293
T2 sequence (Q13133 1-447): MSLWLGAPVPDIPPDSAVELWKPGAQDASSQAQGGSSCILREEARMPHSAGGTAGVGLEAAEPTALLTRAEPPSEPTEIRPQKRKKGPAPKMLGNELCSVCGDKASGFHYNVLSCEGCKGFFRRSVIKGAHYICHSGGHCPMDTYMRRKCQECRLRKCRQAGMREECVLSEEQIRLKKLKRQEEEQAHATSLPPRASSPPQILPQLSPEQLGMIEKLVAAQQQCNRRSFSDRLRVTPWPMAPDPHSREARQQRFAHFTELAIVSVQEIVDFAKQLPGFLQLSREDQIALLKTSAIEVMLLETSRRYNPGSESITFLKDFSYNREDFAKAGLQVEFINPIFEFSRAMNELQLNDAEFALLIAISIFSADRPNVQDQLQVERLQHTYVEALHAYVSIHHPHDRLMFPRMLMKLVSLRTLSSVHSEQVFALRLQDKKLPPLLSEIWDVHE
The assay is described as follows: LXR Gal4 reporter transient transfection assay (FL-M2H Gal4α). Type of assay: cell-based. To be noted: HEK293 cells, full length LXRα; read-out: FL-M2H Gal4α (EC50 range). The procedure:
as §1
(§2) LXR Gal4 Reporter Transient Transfection Assays
(§3) LXRα and LXRβ activity status was determined via detection of interaction with coactivator and corepressor proteins in mammalian two-hybrid experiments (M2H). For this, via transient transfection the full length (FL) proteins of LXRα (amino acids 1-447; NP005684; SEQ ID NO:1) or LXRβ-(amino acids 1-461; NP009052; SEQ ID NO:2) or the ligand-binding domains (LBD) of LXRα (amino acids 155-447 SEQ ID NO:3) or LXRβ (amino acids 156-461; SEQ ID NO:4) were expressed from pCMV-AD (Stratagene) as fusions to the transcriptional activation domain of NFkB. As cofactors, domains of either the steroid receptor coactivator 1 (SRC1; amino acids 552-887; SEQ ID NO:5) or of the corepressor NCoR (amino acids 1906-2312; NP006302; SEQ ID NO:6) were expressed as fusions to the DNA binding domain of the yeast transcription factor GAL4 (from pCMV-BD; Stratagene). Interaction was monitored via activation of a coexpressed Firefly Luciferase Reporter gene under control of a promoter containing repetitive GAL4 response elements (vector pFRLuc; Stratagene). Transfection efficiency was controlled via cotransfection of constitutively active pRL-CMV Renila reniformis luciferase reporter (Promega). HEK293 cells were grown in minimum essential medium (MEM) with 2 mM L-glutamine and Earle's balanced salt solution supplemented with 8.3% fetal bovine serum, 0.1 mM non-essential amino acids, 1 mM sodium pyruvate, at 37° C. in 5% CO2. 3.5×10^4 cells/well were plated in 96-well cell culture plates in growth medium supplemented with 8.3% fetal bovine serum for 16-20 h to ˜90% confluency. For transfection, medium was taken off and LXR and cofactor expressing plasmids as well as the reporter plasmids are added in 30 μL OPTIMEM/well including polyethylene-imine (PEI) as vehicle. Typical amounts of plasmids transfected/well: pCMV-AD-LXR (5 ng), pCMV-BD-cofactor (5 ng), pFR-Luc (100 ng), pRL-CMV (0.5 ng). Compound stocks were prepared in DMSO, prediluted in MEM to a total volume of 120 μL, and added 4 h after addition of the transfection mixture (final vehicle concentration not exceeding 0.2%). Cells were incubated for additional 16 h, lysed for 10 min in 1× Passive Lysis Buffer (Promega) and Firefly and Renilla luciferase activities were measured sequentially in the same cell extract using buffers containing D-luciferine and coelenterazine, respectively. Measurements of luminescence were done in a BMG-luminometer.

Another assay has as its target T3, full length (FL) LXRβ (Homo sapiens, UniProt P55055, DUP175-175).
T3 construct: the full length (FL) proteins of LXRα (amino acids 1-447); NP005684; NP009052; expressed in transfected cells; host or cells: HEK293
T3 sequence (P55055 with tags, fused parts or gaps DUP175-175): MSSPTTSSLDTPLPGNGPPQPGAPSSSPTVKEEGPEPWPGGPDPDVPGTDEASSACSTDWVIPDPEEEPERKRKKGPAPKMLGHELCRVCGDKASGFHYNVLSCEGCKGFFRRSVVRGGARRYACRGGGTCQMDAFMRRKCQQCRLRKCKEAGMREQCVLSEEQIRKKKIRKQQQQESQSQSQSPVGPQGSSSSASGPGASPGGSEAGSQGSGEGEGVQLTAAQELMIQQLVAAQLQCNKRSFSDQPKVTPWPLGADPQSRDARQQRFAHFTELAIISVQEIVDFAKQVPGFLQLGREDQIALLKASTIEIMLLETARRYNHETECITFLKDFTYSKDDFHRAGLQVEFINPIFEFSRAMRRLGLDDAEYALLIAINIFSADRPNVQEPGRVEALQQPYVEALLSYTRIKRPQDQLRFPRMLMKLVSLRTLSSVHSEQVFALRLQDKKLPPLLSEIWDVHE
Nature of the assay: LXR Gal4 reporter transient transfection assay (FL-M2H Gal4β). Format: cell-based. To be noted: HEK293 cells, full length LXRβ; read-out: FL-M2H Gal4β (EC50 range). As for the experimental part:
as §1, §2, §3

On to `Cc1ccc(S(=O)(=O)n2c(-c3cccc(-c4ccc(C(=O)O)cc4Cl)c3)c(-c3cc(C)ccc3C#N)c3cc(F)ccc32)cc1` [11/5], for which the 50% effective concentration (EC50) (in assay [1]; at full length (FL) LXRα; at full length (FL) LXRβ) was below 100 nM each time.

Regarding `N#Cc1ccncc1-c1c(-c2cccc(-c3cc(F)c(C(=O)O)cc3Cl)c2)n(S(=O)(=O)c2ccc(C(F)F)cc2)c2ccc(F)cc12` [11/10], the EC50 (in assay [1]; at full length (FL) LXRα; at full length (FL) LXRβ) was below 100 nM in each case.

With `Cc1n[nH]c(C)c1-c1c(-c2cccc(-c3ccc(C(=O)O)cc3Cl)c2)n(S(=O)(=O)c2ccc(C(F)F)cc2)c2ccc(F)cc12` [11/24], the EC50 (in assay [1]; on full length (FL) LXRα; at full length (FL) LXRβ) was 100 to 1000 nM in each case.

As for `CCc1ccc(S(=O)(=O)n2c(-c3cccc(N4CC(C(=O)O)C4)c3)c(-c3ccsc3C#N)c3cc(F)ccc32)cc1` [3/10], the concentration for a half-maximal effect (EC50) was 100 to 1000 nM in assay [1], 100 to 1000 nM at full length (FL) LXRα and below 100 nM at full length (FL) LXRβ.

With `N#Cc1sccc1-c1c(-c2cccc(N3CC(C(=O)O)C3)c2)n(S(=O)(=O)c2ccc(OC(F)F)cc2)c2ccc(F)cc12` [3/11], the EC50 fell in the range of 1000 to 10000 nM in assay [1] and 100 to 1000 nM at full length (FL) LXRα.

Regarding `CC(O)(C(=O)O)c1ccc(-c2cccc(-c3c(-c4c(C#N)cccc4C#N)c4cc(F)ccc4n3S(=O)(=O)c3ccc(C(F)F)cc3)c2)c(Cl)c1` (stereo not drawn) [11/60], the 50% effective concentration (EC50) at full length (FL) LXRα and at full length (FL) LXRβ was below 100 nM each time.

Consider `Cc1ccc(S(=O)(=O)n2c(-c3cccc(N4CC(C(=O)O)C4)c3)c(-c3ccsc3C(=O)N(C)C)c3cc(F)ccc32)cc1` [3/28], for which the EC50 in assay [1] is above 10000 nM; on full length (FL) LXRβ, 1000 to 10000 nM.

In the case of `Cc1ccc(S(=O)(=O)n2c(-c3cccc(-c4cnc(C(=O)O)cc4C)c3)c(-c3ccsc3C#N)c3cc(F)ccc32)cc1` [Example 36, 5-(3-(3-(2-Cyanothiophen-3-yl)-5-fluoro-1-tosyl-1/indol-2-yl)phenyl)-4-methylpicolinic Acid], the figures for the EC50 (in assay [1]; at full length (FL) LXRβ) were 1000 to 10000 nM and 100 to 1000 nM, respectively.

As to `Cc1ccc(S(=O)(=O)n2c(-c3cccc(-c4ccc(C(=O)NO)cc4)c3)c(-c3ccsc3C#N)c3cc(F)ccc32)cc1` [Example 6, 3′-(3-(2-Cyanothiophen-3-yl)-5-fluoro-1-tosyl-1H-indol-2-yl)-N-hydroxy-[1,1′-biphenyl]-4-carboxamide], the 50% effective concentration (EC50) is 100 to 1000 nM in assay [1] and below 100 nM at full length (FL) LXRβ.

For the molecule `Cc1cccc(C#N)c1-c1c(-c2cccc(-c3ccc(C(=O)O)cc3Cl)c2)n(S(=O)(=O)c2ccc(C(F)F)cc2)c2ccc(F)cc12` (single isomer, unassigned) [41/2, 2-chloro-3′-(3-(2-cyano-6-methylphenyl)-1-((4-(difluoro-methyl)phenyl)sulfonyl)-5-fluoro-1H-indol-2-yl)-[1,1′-biphenyl]-4-carboxylic Acid], the EC50 (in assay [1]; on full length (FL) LXRα) was below 100 nM in each case.

For the molecule `Cc1ccc(S(=O)(=O)n2c(-c3cccc(-c4cc(C)c(C(=O)O)cc4Cl)c3)c(-c3ccsc3C#N)c3cc(F)ccc32)cc1` [Example 12, 2-Chloro-3′-(3-(2-cyanothiophen-3-yl)-5-fluoro-1-tosyl-1H-indol-2-yl)-5-methyl-[1,1′-biphenyl]-4-carboxylic acid], the values for the EC50 (in assay [1]; at full length (FL) LXRβ) were 100 to 1000 nM and below 100 nM, respectively.

Turning to `N#Cc1cccc(C#N)c1-c1c(-c2cccc(-c3ccc(C(=O)O)cc3Cl)c2)n(S(=O)(=O)c2ccc(C(F)F)cc2)c2cc(F)c(O)cc12` [Example 44, 2-Chloro-3′-(3-(2,6-dicyanophenyl)-1-((4-(difluoromethyl)phenyl)sulfonyl)-6-fluoro-5-hydroxy-1H-indol-2-yl)-[1,1′-biphenyl]-4-carboxylic Acid], the results for the concentration for a half-maximal effect (EC50) (in assay [1]; at full length (FL) LXRβ) were 100 to 1000 nM and below 100 nM, respectively.

Turning to `Cc1ccc(S(=O)(=O)n2c(-c3cccc(N4CC(C(=O)O)C4)c3)c(-c3ccsc3/C=N/O)c3cc(F)ccc32)cc1` [3/7], the EC50 is 1000 to 10000 nM in assay [1] and below 100 nM on full length (FL) LXRβ.

(Values after patent US11618747B2, “LXR modulators with bicyclic core moiety” (OrsoBio, Inc., priority 2018, dated 2023).)
